For the assay, the target named is T1, EGFR-expressing A431 cells (Homo sapiens, UniProt P00533).
T1 construct: host or cells: A431 cells
In words: Confocal fluorescence microscopy binding. Type of assay: cell-based. The conditions noted are these: 10 ug/mL, 2 hr at 37° C. The procedure:
A431, SKOV3, and NIH3T3 cells were obtained from ATCC (Manassas, Va.). The NIH3T3 cells were transfected with HER2 genes (3T3/HER2+), in order to overexpress HER2 receptors (Di Fiore et al., Science 1987, 237, 178-182). All of the cell lines were grown at 37° C. in the presence of 5% CO2 in DMEM medium supplemented with 1% L-glutamine, and 5% FBS. For the confocal fluorescence microscopy experiments cells were plated in Lab-Tek chambered slides (#178599 Nalge Nunc) at an appropriate dilution and allowed to attach overnight at 37° C. prior to treatment. […] The individual cell lines seeded on chambered slides with 60-80% confluency were incubated for 2 hr at 37° C. in the dark. After incubation the cell culture medium was removed and slides were washed three times with PBS (pH=7.4) and immediately fixed in 4% paraformaldehyde prepared in PBS (pH=7.4) for 5 min at room temperature. Fluorescent mounting medium (S3023, DakoCytomation) was added at the time the slide was covered with a cover glass to stabilize the fluorophores before and during confocal microscopy. […] Fluorescence (Cy5.5 or Cy7) and DIC images were collected simultaneously using a 63x Plan-Apochromat 1.4 NA oil immersion objective and a long pass 650 nm emission filter. […]

T1 sequence (P00533 25-1210): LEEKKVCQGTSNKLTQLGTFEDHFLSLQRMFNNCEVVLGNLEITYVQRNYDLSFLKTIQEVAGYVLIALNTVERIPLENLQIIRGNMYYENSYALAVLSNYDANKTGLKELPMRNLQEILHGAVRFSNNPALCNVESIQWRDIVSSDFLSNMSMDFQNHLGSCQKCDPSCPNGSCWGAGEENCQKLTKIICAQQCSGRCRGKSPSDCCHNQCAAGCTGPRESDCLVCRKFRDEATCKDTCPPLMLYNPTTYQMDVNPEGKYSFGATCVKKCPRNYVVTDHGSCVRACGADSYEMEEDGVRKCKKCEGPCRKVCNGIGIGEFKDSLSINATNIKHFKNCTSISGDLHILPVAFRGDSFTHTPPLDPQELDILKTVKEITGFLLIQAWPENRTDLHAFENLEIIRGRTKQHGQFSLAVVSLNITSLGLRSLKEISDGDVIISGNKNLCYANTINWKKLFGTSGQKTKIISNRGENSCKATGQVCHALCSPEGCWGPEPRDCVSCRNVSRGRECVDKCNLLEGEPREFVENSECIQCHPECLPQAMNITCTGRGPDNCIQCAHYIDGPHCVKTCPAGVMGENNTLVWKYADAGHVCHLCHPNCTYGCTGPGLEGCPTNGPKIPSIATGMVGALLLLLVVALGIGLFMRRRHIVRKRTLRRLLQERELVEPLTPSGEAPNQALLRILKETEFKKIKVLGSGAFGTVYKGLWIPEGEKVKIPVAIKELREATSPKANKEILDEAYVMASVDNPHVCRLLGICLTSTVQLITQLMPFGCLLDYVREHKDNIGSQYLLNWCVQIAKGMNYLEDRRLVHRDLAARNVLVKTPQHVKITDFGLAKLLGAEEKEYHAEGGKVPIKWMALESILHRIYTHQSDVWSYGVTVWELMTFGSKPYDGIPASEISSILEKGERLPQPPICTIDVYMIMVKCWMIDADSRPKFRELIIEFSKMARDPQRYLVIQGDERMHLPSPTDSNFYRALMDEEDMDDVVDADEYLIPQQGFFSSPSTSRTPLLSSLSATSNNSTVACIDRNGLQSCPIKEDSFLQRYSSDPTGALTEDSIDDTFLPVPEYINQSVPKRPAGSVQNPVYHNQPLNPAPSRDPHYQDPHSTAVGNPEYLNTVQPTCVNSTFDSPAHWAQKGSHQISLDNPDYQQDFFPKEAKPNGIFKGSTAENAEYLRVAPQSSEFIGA

Regarding `CC[N+]1=C(/C=C/C=C/C=C/C=C2/N(CCCCCC(=O)N[C@@H](CCCCNC(=O)C3CCC(CN4C(=O)CC(SCCCC(=N)NC)C4=O)CC3)C(=O)Nc3ccc(C[C@H](CN(CC(=O)O)[C@H]4CCCC[C@@H]4N(CC(=O)O)CC(=O)O)N(CC(=O)O)CC(=O)O)cc3)c3ccc(S(=O)(=O)O)cc3C2(C)C)C(C)(C)c2cc(S(=O)(=O)[O-])ccc21` (stereo partly shown) [imaging agent 11], the “binding / fluorescent labeling” value was “specifically labels”.

The values above are taken from patent US8535639B2, “Trifunctional imaging agent for monoclonal antibody tumor-targeted imaging” (The United States of America, as represented by the …, priority 2007, dated 2013).
